Reference: ChEMBL document CHEMBL1201862, “PubChem BioAssay data set” (2004)
Active and inactive are the calls of the source.

How the values were obtained:
HEK293 [1] = assay: NOD2 signaling inhibitors in MDP-stimulated cells, cell-based, uHTS, luminescence (AID 2001); format: functional; details: Homo sapiens
Tumor necrosis factor = Tumor necrosis factor (Homo sapiens, UniProt P01375); assay: analog potency on TNFa NF-kB signaling – cell-based, revised, SAR follow-up (AID 2337); format: functional
Chain of Tumor necrosis factor (P01375 whole entry, the tested form may be a part): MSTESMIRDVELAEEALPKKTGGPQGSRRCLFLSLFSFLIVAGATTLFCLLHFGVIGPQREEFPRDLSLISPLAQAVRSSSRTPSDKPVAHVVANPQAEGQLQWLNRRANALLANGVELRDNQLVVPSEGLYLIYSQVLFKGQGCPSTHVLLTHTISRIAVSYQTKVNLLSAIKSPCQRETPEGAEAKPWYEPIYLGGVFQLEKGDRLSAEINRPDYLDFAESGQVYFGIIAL

[2] = target: Nucleotide-binding oligomerization domain-containing protein 2 (Homo sapiens, UniProt Q9HC29); assay: PubChem AID 2334; format: functional
Chain of Nucleotide-binding oligomerization domain-containing protein 2 (Q9HC29 whole entry, the tested form may be a part): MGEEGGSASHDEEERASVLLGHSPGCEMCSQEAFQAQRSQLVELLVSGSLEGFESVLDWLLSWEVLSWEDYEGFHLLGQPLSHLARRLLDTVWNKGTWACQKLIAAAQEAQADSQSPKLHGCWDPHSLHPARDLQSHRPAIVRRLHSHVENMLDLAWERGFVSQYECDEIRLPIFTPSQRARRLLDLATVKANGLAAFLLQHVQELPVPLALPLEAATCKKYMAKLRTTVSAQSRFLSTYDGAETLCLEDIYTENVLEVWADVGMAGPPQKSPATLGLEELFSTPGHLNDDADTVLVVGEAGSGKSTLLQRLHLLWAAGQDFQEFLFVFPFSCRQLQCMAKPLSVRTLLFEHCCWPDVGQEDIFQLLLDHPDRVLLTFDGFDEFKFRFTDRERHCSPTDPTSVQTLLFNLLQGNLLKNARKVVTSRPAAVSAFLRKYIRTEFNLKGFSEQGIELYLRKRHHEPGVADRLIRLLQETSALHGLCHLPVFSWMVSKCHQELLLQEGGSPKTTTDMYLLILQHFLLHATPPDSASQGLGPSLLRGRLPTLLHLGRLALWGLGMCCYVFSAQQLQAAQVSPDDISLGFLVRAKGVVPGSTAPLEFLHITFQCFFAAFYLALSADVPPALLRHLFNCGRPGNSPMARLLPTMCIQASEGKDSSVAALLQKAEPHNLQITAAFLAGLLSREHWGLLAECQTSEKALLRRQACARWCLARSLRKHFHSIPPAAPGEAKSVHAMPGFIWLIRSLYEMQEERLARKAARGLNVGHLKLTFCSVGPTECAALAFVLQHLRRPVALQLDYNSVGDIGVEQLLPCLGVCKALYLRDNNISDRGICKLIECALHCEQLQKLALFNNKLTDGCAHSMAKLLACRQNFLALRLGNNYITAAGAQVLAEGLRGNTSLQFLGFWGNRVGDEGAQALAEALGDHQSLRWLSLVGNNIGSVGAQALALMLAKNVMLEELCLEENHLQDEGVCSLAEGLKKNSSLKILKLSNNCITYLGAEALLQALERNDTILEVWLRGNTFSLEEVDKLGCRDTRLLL

HEK293 [3] = assay: cells; format: functional, cell-based; details: Homo sapiens
HEK293 [4] = assay: SAR Analysis of small molecule inhibitors of B-cell specific antigen receptor-induced NF-kB activation in a HEK-293T cell line using a luminescence assay - Set 2. [Related pubchem assays (depositor defined):AID435022, AID435025, AID489021]; format: functional, cell-based; details: Homo sapiens
[5] = target: Nucleotide-binding oligomerization domain-containing protein 1 (Homo sapiens, UniProt Q9Y239); assay: blockers of NOD1 pathway activity – revised, SAR follow-up (AID 2333); format: functional
Chain of Nucleotide-binding oligomerization domain-containing protein 1 (Q9Y239 whole entry, the tested form may be a part): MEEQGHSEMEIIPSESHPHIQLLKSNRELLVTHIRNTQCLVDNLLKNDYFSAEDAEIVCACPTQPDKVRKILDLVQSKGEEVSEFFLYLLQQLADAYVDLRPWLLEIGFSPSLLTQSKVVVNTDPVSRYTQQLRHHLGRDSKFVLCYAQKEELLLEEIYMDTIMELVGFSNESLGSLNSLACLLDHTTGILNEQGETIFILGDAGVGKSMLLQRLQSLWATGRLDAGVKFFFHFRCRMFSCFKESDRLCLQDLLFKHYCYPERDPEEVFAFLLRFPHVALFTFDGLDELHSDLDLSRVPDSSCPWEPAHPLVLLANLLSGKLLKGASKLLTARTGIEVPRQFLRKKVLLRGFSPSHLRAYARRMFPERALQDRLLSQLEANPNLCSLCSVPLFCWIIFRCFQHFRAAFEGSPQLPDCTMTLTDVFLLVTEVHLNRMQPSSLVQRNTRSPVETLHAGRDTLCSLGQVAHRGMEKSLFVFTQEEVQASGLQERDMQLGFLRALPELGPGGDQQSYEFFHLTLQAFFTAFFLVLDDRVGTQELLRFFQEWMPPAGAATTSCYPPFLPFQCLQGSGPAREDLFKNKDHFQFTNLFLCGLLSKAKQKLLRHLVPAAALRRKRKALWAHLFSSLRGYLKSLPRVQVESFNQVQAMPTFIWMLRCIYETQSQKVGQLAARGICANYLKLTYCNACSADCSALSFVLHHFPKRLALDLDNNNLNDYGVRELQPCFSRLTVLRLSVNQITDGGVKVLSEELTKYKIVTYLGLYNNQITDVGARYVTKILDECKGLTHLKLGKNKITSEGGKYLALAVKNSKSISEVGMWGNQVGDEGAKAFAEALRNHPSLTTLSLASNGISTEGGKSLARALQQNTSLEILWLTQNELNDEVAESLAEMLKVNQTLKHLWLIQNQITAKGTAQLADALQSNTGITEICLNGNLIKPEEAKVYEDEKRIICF

HEK293 [6] = assay: cells; details: Homo sapiens
HEK293 [7] = assay: cells; format: functional, cell-based; details: Homo sapiens; remark: listed apart in the source
[8] = HEK-293T cell viability reduction – luminescence, B-cell screen hits, cytotoxicity control for BCR NF-kB inhibitor project, dose response (AID 489021); format: functional, cell-based;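 further: HEK-293T cells carrying an NF-kB luciferase reporter; cells exposed to compound for about 14 hours before viability readout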
HEK293 [9] = assay: HEK293T cell viability loss, resazurin readout – resazurin fluorescence, cytotoxicity control for NF-kB activator project, SAR follow-up (AID 493251); format: functional, cell-based; details: Homo sapiens
Jurkat = assay: SAR Analysis of small molecule inhibitors of […] specific antigen receptor-induced NF-kB activation in a Jurkat cell line using a luminescence assay - Set 3. [Related pubchem assays (depositor defined):AID435022, AID435025, AID465]; format: functional, cell-based; details: Homo sapiens
[10] = target: T1, Microphthalmia-associated transcription factor (Homo sapiens, UniProt O75030); assay: reducers of TRPM1 reporter luminescence, concentration series – cell-based, SK-MEL-5, cherry-picked, set 3, MITF inhibitor project, dose response (AID 493073); format: functional;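 further: SK-MEL-5 melanoma cells with luciferase driven by the MITF target TRPM1 promoter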
T1 sequence (O75030 whole entry): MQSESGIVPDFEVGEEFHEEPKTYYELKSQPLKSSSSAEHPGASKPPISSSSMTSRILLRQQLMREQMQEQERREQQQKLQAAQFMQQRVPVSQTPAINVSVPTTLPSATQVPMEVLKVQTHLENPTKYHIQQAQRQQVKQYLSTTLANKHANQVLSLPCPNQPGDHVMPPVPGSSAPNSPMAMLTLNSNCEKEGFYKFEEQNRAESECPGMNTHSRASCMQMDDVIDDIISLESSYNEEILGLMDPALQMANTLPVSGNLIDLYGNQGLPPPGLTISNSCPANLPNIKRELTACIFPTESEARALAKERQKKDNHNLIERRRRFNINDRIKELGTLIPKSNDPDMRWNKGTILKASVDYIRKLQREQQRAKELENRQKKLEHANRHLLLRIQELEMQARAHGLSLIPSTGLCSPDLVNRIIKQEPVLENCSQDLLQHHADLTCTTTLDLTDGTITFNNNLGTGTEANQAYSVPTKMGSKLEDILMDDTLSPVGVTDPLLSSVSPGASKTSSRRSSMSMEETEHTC

HEK293 [11] = assay: inhibition of NOD1-driven NF-kB reporter – cell-based, luminescence, uHTS, primary screen (AID 1578); format: functional; details: Homo sapiens
[12] = target: G-protein coupled receptor 35 (Homo sapiens, UniProt Q9HC97); assay: SAR Analysis for the identification of Selective Antagonists of ERK1/2 Activity in GPR35-Overexpressing U2OS Cells. [Related pubchem assays: 2079, 2058 ]; format: functional, cell-based
Chain of G-protein coupled receptor 35 (Q9HC97 whole entry): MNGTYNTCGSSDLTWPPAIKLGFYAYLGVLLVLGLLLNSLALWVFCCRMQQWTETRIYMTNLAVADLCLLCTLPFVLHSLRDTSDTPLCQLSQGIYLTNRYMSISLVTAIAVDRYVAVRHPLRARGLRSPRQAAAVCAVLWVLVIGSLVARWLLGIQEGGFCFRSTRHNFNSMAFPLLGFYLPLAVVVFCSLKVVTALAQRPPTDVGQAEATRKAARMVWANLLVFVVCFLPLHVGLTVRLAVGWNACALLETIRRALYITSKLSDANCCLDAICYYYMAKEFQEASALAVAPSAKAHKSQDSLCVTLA

[13] = target: G-protein coupled receptor 55 (Homo sapiens, UniProt Q9Y2T6); assay: blockers of GPR55 signalling, imaged – imaging, image-based, counter-screen for GPR35 antagonist project, SAR follow-up (AID 2397); format: functional
Chain of G-protein coupled receptor 55 (Q9Y2T6 whole entry): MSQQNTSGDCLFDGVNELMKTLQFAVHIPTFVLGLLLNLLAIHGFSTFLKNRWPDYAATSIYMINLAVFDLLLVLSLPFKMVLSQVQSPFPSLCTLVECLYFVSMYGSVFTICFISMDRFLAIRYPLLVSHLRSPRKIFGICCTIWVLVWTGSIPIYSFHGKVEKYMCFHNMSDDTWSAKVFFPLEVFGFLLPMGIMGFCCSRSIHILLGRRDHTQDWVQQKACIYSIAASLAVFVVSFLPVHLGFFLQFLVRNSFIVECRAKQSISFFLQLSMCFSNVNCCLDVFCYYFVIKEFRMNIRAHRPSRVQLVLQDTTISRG

[14] = target: Beta-adrenergic receptor kinase 1 (Homo sapiens, UniProt P25098); assay: blockers of aptamer binding to GRK2 – biochemical, flow cytometry beads, FAM-aptamer, powder set 1, dose response (AID 588720)
Chain of Beta-adrenergic receptor kinase 1 (P25098 whole entry): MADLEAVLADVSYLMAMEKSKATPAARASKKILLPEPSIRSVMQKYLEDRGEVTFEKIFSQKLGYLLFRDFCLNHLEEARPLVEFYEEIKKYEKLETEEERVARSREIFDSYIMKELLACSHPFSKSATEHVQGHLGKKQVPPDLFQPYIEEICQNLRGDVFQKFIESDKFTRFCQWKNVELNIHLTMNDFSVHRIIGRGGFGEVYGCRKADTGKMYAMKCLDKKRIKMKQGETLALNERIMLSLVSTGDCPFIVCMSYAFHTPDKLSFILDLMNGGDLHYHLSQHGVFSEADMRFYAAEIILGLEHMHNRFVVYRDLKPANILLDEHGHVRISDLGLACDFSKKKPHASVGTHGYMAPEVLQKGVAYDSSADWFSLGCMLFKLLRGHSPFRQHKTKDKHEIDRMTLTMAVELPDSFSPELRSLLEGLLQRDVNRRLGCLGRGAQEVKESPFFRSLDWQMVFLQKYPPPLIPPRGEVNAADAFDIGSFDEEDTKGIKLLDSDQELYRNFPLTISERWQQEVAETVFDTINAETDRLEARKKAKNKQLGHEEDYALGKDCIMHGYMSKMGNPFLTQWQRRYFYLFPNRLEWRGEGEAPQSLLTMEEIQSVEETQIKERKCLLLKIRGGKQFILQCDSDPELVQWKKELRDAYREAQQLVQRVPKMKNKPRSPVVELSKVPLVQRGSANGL

[15] = target: T2, Alkaline phosphatase, tissue-nonspecific isozyme (Homo sapiens, UniProt P05186); assay: TNAP enzyme inhibition by screening hits, dose response, selectivity assay for mouse IAP inhibitor project, biochemical, human TNAP, uHTS hits (AID 488906); format: functional
T2 sequence (P05186 whole entry): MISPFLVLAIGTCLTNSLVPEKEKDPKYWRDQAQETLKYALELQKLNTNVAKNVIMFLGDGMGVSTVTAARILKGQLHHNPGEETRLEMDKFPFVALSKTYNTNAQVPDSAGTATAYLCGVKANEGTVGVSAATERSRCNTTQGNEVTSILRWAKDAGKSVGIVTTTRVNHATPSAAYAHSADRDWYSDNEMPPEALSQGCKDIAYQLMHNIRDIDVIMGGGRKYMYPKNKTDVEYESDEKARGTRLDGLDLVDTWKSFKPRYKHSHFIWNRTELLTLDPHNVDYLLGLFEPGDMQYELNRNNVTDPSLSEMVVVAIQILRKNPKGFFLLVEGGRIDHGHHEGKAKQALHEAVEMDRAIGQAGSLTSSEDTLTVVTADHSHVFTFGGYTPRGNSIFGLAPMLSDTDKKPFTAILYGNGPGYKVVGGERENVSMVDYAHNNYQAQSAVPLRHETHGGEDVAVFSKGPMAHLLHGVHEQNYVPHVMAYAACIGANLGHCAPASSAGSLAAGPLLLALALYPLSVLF

[16] = target: T3, Long-chain-fatty-acid--AMP ligase FadD28 (Mycobacterium tuberculosis, UniProt P9WQ59); assay: Fluorescence polarization aasay to screen for inhibitors that compete for the binding of FadD28 to a bisubstrate Measured in Biochemical System Using Plate Reader - 2147-01_Inhibitor_Dose_CherryPick_Activity.; format: functional, Mycobacterium tuberculosis H37Rv
T3 sequence (P9WQ59 whole entry): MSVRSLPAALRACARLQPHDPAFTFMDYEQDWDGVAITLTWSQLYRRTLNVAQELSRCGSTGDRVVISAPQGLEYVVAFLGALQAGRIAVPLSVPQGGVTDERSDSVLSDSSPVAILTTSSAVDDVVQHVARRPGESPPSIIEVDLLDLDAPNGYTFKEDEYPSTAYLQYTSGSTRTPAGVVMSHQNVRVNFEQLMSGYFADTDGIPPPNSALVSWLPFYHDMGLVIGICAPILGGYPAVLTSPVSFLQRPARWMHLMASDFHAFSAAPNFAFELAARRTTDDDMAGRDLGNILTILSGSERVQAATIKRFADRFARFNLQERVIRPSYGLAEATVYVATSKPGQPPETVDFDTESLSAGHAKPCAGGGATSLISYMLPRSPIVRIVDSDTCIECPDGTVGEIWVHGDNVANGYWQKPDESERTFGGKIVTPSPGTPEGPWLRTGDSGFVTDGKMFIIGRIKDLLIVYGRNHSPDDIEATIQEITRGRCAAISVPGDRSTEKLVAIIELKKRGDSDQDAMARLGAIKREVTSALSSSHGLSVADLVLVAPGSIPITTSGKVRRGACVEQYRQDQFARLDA

[17] = target: Intestinal-type alkaline phosphatase (Homo sapiens, UniProt P09923); assay: inhibition of human intestinal alkaline phosphatase – biochemical, dose response (AID 488876); format: functional
Chain of Intestinal-type alkaline phosphatase (Homo sapiens, UniProt P09923) (P09923 whole entry): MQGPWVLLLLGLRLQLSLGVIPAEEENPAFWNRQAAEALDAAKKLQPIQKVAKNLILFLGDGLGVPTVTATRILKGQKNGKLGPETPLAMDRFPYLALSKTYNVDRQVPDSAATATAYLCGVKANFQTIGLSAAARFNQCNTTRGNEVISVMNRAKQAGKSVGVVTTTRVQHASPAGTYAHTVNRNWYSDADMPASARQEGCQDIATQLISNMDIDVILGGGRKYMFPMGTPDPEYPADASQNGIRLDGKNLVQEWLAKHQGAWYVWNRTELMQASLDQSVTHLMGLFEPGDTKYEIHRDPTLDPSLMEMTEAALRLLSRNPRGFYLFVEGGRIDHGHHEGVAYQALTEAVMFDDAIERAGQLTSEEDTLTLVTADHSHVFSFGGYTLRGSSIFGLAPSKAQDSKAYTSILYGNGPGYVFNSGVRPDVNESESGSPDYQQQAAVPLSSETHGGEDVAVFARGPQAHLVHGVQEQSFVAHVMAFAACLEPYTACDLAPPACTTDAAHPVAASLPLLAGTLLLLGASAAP

[18] = target: Intestinal-type alkaline phosphatase (Mus musculus, UniProt P24822); assay: PubChem AID 488785; format: functional
Chain of Intestinal-type alkaline phosphatase (Mus musculus, UniProt P24822) (P24822 whole entry): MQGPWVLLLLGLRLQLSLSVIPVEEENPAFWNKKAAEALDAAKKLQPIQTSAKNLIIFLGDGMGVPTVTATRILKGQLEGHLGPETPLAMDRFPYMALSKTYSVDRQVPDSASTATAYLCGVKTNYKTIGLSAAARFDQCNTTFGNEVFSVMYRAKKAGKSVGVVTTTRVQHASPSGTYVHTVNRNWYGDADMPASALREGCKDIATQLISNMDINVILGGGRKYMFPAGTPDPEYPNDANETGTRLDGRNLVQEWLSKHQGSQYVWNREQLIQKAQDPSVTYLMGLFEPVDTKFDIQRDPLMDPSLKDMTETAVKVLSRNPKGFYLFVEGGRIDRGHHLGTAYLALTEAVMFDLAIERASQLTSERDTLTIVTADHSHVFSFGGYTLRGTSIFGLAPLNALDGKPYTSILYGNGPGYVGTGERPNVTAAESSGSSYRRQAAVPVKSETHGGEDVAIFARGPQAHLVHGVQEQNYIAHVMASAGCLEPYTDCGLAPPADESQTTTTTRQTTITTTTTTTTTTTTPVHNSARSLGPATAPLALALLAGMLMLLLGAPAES

In the case of `CC(C)(C)c1ccc(-c2noc(CCC(=O)NCc3ccco3)n2)cc1`, the IC50 (HEK293 [1]) is reported as > 20 µM (inactive), the IC50 (Tumor necrosis factor) is reported as 6.76 µM (active) and the IC50 [2] is reported as 2.16 µM (active). The IC50 (HEK293 [3]) was > 20 µM (inactive), the IC50 (HEK293 [4]) was 2.39 µM (active) and the IC50 [5] was 3.68 µM (active). For the same compound, the IC50 (HEK293 [6]) was > 20 µM (inactive), the IC50 (HEK293 [7]) was > 20 µM (inactive) and the IC50 [8] was > 80 µM (inactive). The IC50 (HEK293 [9]) was 49.2 µM (inactive), the IC50 (Jurkat) was > 80 µM (inactive) and the AC50 [10] was 0.122 µM (active). The EC50 (HEK293 [11]) was 8.42 µM (active).
In the case of `Cc1c(C(=O)Nc2ccc3c(c2)OCCO3)sc2ncnc(N3CCC(C)CC3)c12`, the IC50 [12] is reported as 20.6 µM (not active) and the IC50 [13] is reported as 21.4 µM (inactive).
In the case of `Cc1cccc(N2CCN(C(=O)CCS(=O)(=O)c3ccc(Br)cc3)CC2C)c1` (stereo not given), the EC50 [14] is reported as 2 µM (active).
In the case of `O=C(NN1C(=O)/C(=C/c2ccc(O)c(O)c2)SC1=S)c1ccccc1`, the IC50 [15] is reported as 20 µM (active), the AC50 [16] is reported as 1.41 µM (active) and the IC50 [17] is reported as > 100 µM (inactive). The IC50 [18] was 1.28 µM (active).
